Laboratory results reported in publication PMC7199333, “Efficacy and safety of lanreotide autogel compared with lanreotide 40 mg prolonged release in Chinese patients with active acromegaly: results from a phase 3, prospective, randomized, and open-label study (LANTERN)” (BMC Endocrine Disorders, 2020).

What was measured:
[1] = Serum lanreotide pharmacokinetics (non-compartmental); format: in vivo, human; settings: lanreotide autogel; fourth titrated dose 120 mg normalized to 90 mg vs first dose of 90 mg; PK subgroup
Description: Lanreotide autogel – pre-dose serum samples were taken at weeks 1, 13, 17, and 29; sampling around 4 h after treatment at weeks 13 and 17 and at the end of study (Week 33)/early withdrawal visit. For a subset of patients in the PK subgroup, additional samples were taken during the study and during the PK extension phase: after the first administration of 90 mg at Week 1 (1, 4, 6, 8, 12, 24, and 72 h), Week 2 (168 h), Week 3 (336 h), Week 4 (504 h) and prior to the next administration at Week 5 (672 h); after the fourth (last) administration of the titrated dose at Week 29 (1, 4, 6, 8, 12, 24, and 72 h), Week 30 (168 h), Week 31 (336 h), Week 32 (504 h), and at Week 37 (1344 h) and Week 41 (2016 h).
Lanreotide 40 mg PR – pre-dose serum samples were taken at weeks 1, 2, 13, 16, and at the end-of-study/early withdrawal visit (all taken shortly before treatment) for all patients.
PK endpoints included trough lanreotide concentrations (Ctrough i.e. observed serum concentration at the end of the dosing interval) prior to the fourth, fifth and eighth administrations and at the end-of-study treatment visit with lanreotide autogel, and prior to the second, tenth and twelfth administrations and at the end-of-study visit with lanreotide 40 mg PR. Following a similar approach as reported by Bronstein and colleagues, a non-compartmental PK analysis was performed for the lanreotide autogel PK subgroup to provide individual PK parameters over a 4-week dosing interval after the first and last administration of study drug (i.e. steady state): maximum plasma concentration (Cmax), time to maximum plasma concentration (tmax), area under the concentration–time curve over a 4-week dosing interval (AUCtau), Ctrough and elimination t½ [19].
Additional parameters were estimated, comparing lanreotide PK after Week 1 and Week 29 after normalization to a dose of 90 mg: accumulation ratio for Ctrough (Rtrough) = Ctrough,Week 29/Ctrough,Week 1; accumulation ratio for Cmax (Rmax) = Cmax,Week 29/Cmax,Week 1; accumulation ratio for AUCtau (RAUC) = AUCtau, Week 29/AUCtau, Week 1.

[2] = tested on: human somatostatin receptor 2; parameters: method as in PMID 7988476; settings: selective somatostatin receptor subtype agonist; cited from earlier work
[3] = tested on: human somatostatin receptor 5; parameters: method as in PMID 7988476; settings: selective somatostatin receptor subtype agonist; cited from earlier work
[4] = cited from earlier work
From the text: Somatostatin analogs (SSAs) are the preferred type of medical therapy used to reduce GH secretion. Patients who have persistent disease following surgical resection are recommended treatment with the first-generation long acting SSAs, octreotide long-acting release (LAR) or lanreotide autogel. Lanreotide is a synthetic octapeptide analog of natural somatostatin with a longer half-life (t½) than the native molecule, and a selective somatostatin receptor subtype agonist with a high affinity for human somatostatin receptors 2 and 5 [5], which are commonly expressed at both the mRNA [6] ... || Steady-state PK was achieved after the administration of four lanreotide autogel doses. […] Similarly, Bronstein and colleagues reported a steady state Cmin (equivalent to Ctrough) of 3.76 ng/mL [19].

## CC(C)[C@@H]1NC(=O)[C@H](CCCCN)NC(=O)[C@@H](Cc2c[nH]c3ccccc23)NC(=O)[C@H](Cc2ccc(O)cc2)NC(=O)[C@@H](NC(=O)[C@H](N)Cc2ccc3ccccc3c2)CSSC[C@@H](C(=O)N[C@H](C(N)=O)[C@@H](C)O)NC1=O [lanreotide]
[1]
  Mean RAUC (accumulation ratio for AUCtau, Week 29/Week 1): 2.33
  Mean Rmax (accumulation ratio for Cmax, Week 29/Week 1): 1.40
  Mean Rtrough (accumulation ratio for Ctrough, Week 29/Week 1): 2.62
[2]
  Affinity for human somatostatin receptor 2: high affinity
[3]
  Affinity for human somatostatin receptor 5: high affinity
[4]
  Half-life (t½) compared with the native molecule (natural somatostatin): longer
